The EC50 is the concentration at which the effect is half-maximal.

SMILES strings stand for the structures.

The experiment deals with SARS-CoV-2 strain USA-WA1/2020. Briefly: microbe, parasite or virus in culture. In kind it is cell-based. The note with it: Severe acute respiratory syndrome coronavirus 2, HeLa-ACE2, 24 h, HeLa-ACE2 cells, SARS-CoV-2 infection, 24 h; read-out: EC50, uM (Hela).
Take `[2H]C([2H])([2H])C([2H])(C([2H])([2H])[2H])C([2H])([2H])C(=O)N1CC2(CC2)C[C@H]1C(=O)N[C@@H](C[C@@H]1CCNC1=O)C(=O)COC(F)(F)F` [Compound 737, (S)-5-(3-(methyl-d3)butanoyl-2,2,3,4,4,4-d6)-N-((S)-3-oxo-1-((S)-2-oxopyrrolidin-3-yl)-4-(trifluoromethoxy)butan-2-yl)-5-azaspiro[2.4]heptane-6-carboxamide]: the EC50 is less than 0.05 µM.

For the compound `[2H]C(C)(C)C(=O)N1CC2(CC2)C[C@H]1C(=O)N[C@@H](C[C@@H]1CCNC1=O)C(=O)COC(F)(F)F` [Compound 738, (S)-5-(2-methylpropanoyl-2-d)-N-((S)-3-oxo-1-((S)-2-oxopyrrolidin-3-yl)-4-(trifluoromethoxy)butan-2-yl)-5-azaspiro[2.4]heptane-6-carboxamide], the EC50 lay within 0.05 to 0.2 µM.

Take `[2H]C([2H])([2H])C(C(=O)N1CC2(CC2)C[C@H]1C(=O)N[C@@H](C[C@@H]1CCNC1=O)C(=O)COC(F)(F)F)C([2H])([2H])[2H]` [Compound 739, (S)-5-(2-(methyl-d3)propanoyl-3,3,3-d3)-N-((S)-3-oxo-1-((S)-2-oxopyrrolidin-3-yl)-4-(trifluoromethoxy)butan-2-yl)-5-azaspiro[2.4]heptane-6-carboxamide]: the EC50 is 0.05 to 0.2 µM.

Consider `[2H]C([2H])(CCCC)C(=O)N1CC2(CC2)C[C@H]1C(=O)N[C@@H](C[C@@H]1CCNC1=O)C(=O)COC(F)(F)F` [Compound 740, (S)-5-(hexanoyl-2,2-d2)-N-((S)-3-oxo-1-((S)-2-oxopyrrolidin-3-yl)-4-(trifluoromethoxy)butan-2-yl)-5-azaspiro[2.4]heptane-6-carboxamide], for which the EC50 was less than 0.05 µM.

In the case of `COc1cccc([C@@H](O)C(=O)N2C[C@H]3[C@@H]([C@H]2C(=O)N[C@@H](C[C@@H]2CCNC2=O)C(=O)COC(F)(F)F)C3(C)C)c1F` [Compound 741, (1R,2S,5S)-3-((R)-2-(2-fluoro-3-methoxyphenyl)-2-hydroxyacetyl)-6,6-dimethyl-N-((S)-3-oxo-1-((S)-2-oxopyrrolidin-3-yl)-4-(trifluoromethoxy)butan-2-yl)-3-azabicyclo[3.1.0]hexane-2-carboxamide], the EC50 is less than 0.05 µM.

On to `CC(C)(C)C[C@H](NC(=O)C(=O)Nc1cccc(C(F)(F)F)n1)C(=O)N[C@@H](C[C@@H]1CCCNC1=O)C(=O)CO` [Compound 742, N1-((S)-1-(((S)-4-hydroxy-3-oxo-1-((S)-2-oxopiperidin-3-yl)butan-2-yl)amino)-4,4-dimethyl-1-oxopentan-2-yl)-N2-(6-(trifluoromethyl)pyridin-2-yl)oxalamide], for which the EC50 was in the range of 0.2 to 0.5 µM.

For the compound `O=C(CC(C(F)(F)F)C(F)(F)F)C(=O)N1CC2(CC2)C[C@H]1C(=O)N[C@@H](C[C@@H]1CCNC1=O)C(=O)COC(F)(F)F` [Compound 743, (S)-N-((S)-3-oxo-1-((S)-2-oxopyrrolidin-3-yl)-4-(trifluoromethoxy)butan-2-yl)-5-(5,5,5-trifluoro-2-oxo-4-(trifluoromethyl)pentanoyl)-5-azaspiro[2.4]heptane-6-carboxamide], the EC50 was less than 0.05 µM.

Consider `O=C1NCC[C@H]1C[C@H](NC(=O)[C@@H]1CC2(CC2)CN1C(=O)[C@H](O)CC(C(F)(F)F)C(F)(F)F)C(=O)COC(F)(F)F` [Compound 744, (S)-N-((S)-3-oxo-1-((S)-2-oxopyrrolidin-3-yl)-4-(trifluoromethoxy)butan-2-yl)-5-((R)-5,5,5-trifluoro-2-hydroxy-4-(trifluoromethyl)pentanoyl)-5-azaspiro[2.4]heptane-6-carboxamide], for which the concentration giving a half-maximal response (EC50) was less than 0.05 µM.

Consider `O=C1NCC[C@H]1C[C@H](NC(=O)[C@@H]1CC2(CC2)CN1C(=O)[C@@H](O)CC(C(F)(F)F)C(F)(F)F)C(=O)COC(F)(F)F` [Compound 745, (S)-N-((S)-3-oxo-1-((S)-2-oxopyrrolidin-3-yl)-4-(trifluoromethoxy)butan-2-yl)-5-((S)-5,5,5-trifluoro-2-hydroxy-4-(trifluoromethyl)pentanoyl)-5-azaspiro[2.4]heptane-6-carboxamide], for which the EC50 was less than 0.05 µM.

Consider `O=C(NC1CC1)C(=O)N1CC2(CC2)C[C@H]1C(=O)N[C@@H](C[C@@H]1CCNC1=O)C(=O)COC(F)(F)F` [Compound 746, (S)-5-(2-(cyclopropylamino)-2-oxoacetyl)-N-((S)-3-oxo-1-((S)-2-oxopyrrolidin-3-yl)-4-(trifluoromethoxy)butan-2-yl)-5-azaspiro[2.4]heptane-6-carboxamide], for which the EC50 was 0.05 to 0.2 µM.

As to `CC(C)NC(=O)C(=O)N1CC2(CC2)C[C@H]1C(=O)N[C@@H](C[C@@H]1CCNC1=O)C(=O)COC(F)(F)F` [Compound 747, (S)-5-(2-(isopropylamino)-2-oxoacetyl)-N-((S)-3-oxo-1-((S)-2-oxopyrrolidin-3-yl)-4-(trifluoromethoxy)butan-2-yl)-5-azaspiro[2.4]heptane-6-carboxamide], the 50% effective concentration (EC50) was less than 0.05 µM.

In the case of `CC(C)C[C@H](C)C(=O)N1CC2(CC2)C[C@H]1C(=O)N[C@@H](C[C@@H]1CCNC1=O)C(=O)COC(F)(F)F` [Compound 748, (S)-5-((S)-2,4-dimethylpentanoyl)-N-((S)-3-oxo-1-((S)-2-oxopyrrolidin-3-yl)-4-(trifluoromethoxy)butan-2-yl)-5-azaspiro[2.4]heptane-6-carboxamide], the EC50 lay in the range of 0.05 to 0.2 µM.

Turning to `CCNC(=O)C(=O)N1CC2(CC2)C[C@H]1C(=O)N[C@@H](C[C@@H]1CCNC1=O)C(=O)COC(F)(F)F` [Compound 749, (S)-5-(2-(ethylamino)-2-oxoacetyl)-N-((S)-3-oxo-1-((S)-2-oxopyrrolidin-3-yl)-4-(trifluoromethoxy)butan-2-yl)-5-azaspiro[2.4]heptane-6-carboxamide], the EC50 was in the range of 0.05 to 0.2 µM.

Regarding `CC(F)(F)CCC(=O)N1CC2(CC2)C[C@@H]1C(=O)N[C@H](C[C@@H]1CCNC1=O)C(=O)COC(F)(F)F` [Compound 750, (R)-5-(4,4-difluoropentanoyl)-N-((R)-3-oxo-1-((S)-2-oxopyrrolidin-3-yl)-4-(trifluoromethoxy)butan-2-yl)-5-azaspiro[2.4]heptane-6-carboxamide], the EC50 is 0.05 to 0.2 µM.

For the compound `CC(C)C[C@@H](O)C(=O)N1CC(F)(F)C[C@H]1C(=O)N[C@@H](C[C@@H]1CCNC1=O)C(=O)COC(F)(F)F` [Compound 751, (S)-4,4-difluoro-1-((R)-2-hydroxy-4-methylpentanoyl)-N-((S)-3-oxo-1-((S)-2-oxopyrrolidin-3-yl)-4-(trifluoromethoxy)butan-2-yl)pyrrolidine-2-carboxamide], the EC50 is 0.05 to 0.2 µM.

For `CC(C)C[C@@H](C)C(=O)N1CC2(CC2)C[C@H]1C(=O)N[C@@H](C[C@@H]1CCNC1=O)C(=O)COC(F)(F)F` [Compound 752, (S)-5-((R)-2,4-dimethylpentanoyl)-N-((S)-3-oxo-1-((S)-2-oxopyrrolidin-3-yl)-4-(trifluoromethoxy)butan-2-yl)-5-azaspiro[2.4]heptane-6-carboxamide], the EC50 is less than 0.05 µM.

As for `CC(C)C[C@@H](O)C(=O)N1C[C@H](C)C[C@H]1C(=O)N[C@@H](C[C@@H]1CCNC1=O)C(=O)COC(F)(F)F` [Compound 753, (2S,4R)-1-((R)-2-hydroxy-4-methylpentanoyl)-4-methyl-N-((S)-3-oxo-1-((S)-2-oxopyrrolidin-3-yl)-4-(trifluoromethoxy)butan-2-yl)pyrrolidine-2-carboxamide], the EC50 is less than 0.05 µM.

The record behind these values is US11708348B2, “Protease inhibitors for treatment of coronavirus infections” (The Scripps Research Institute, priority 2021, dated 2023).
